Data set [1] has as its target T1, AmelOBP2 (Apis mellifera, UniProt A0A8U0WQ64). The experiment in a line: Fluorescence competitive binding assay with 1-NPN as probe. The settings on record: for Ki: Ki = [IC50]/(1 + [1-NPN]/K1-NPN), read-out: Ki (binding constant); for IC50: odor standard concentration at which AmelOBP2/1-NPN fluorescence is reduced to half; for binding ability to AmelOBP2 (in words): fluorescence competitive binding. Details: species or system Apis mellifera ligustica. As for the experimental part:
The binding ability of the recombinant protein AmelOBP2 to the 14 tomato and 25 melon floral volatiles was determined using a fluorescence competitive binding assay. The IC50 values of the odor standard compounds obtained from the fluorescence competitive binding curve (Figure 6) and the binding constant Ki between AmelOBP2 and the odor standard compounds are shown in Table 1.
(§1) The ability of AmelOBP2 to bind to floral volatiles in tomato and melon greenhouses was determined using an RF-5301PC fluorescence spectrophotometer (Shimadzu, Japan) with […] (1-NPN) (TCI, Japan) as the fluorescence probe (Table A5). The parameters of the RF-5301PC fluorescence spectrophotometer are set as follows: the emission wavelength range is 360–500 nm, the excitation wavelength is 337 nm, and the slit width is 3 nm. This process was similar to that described by Du et al.. Data were processed using GraphPad Prism 8.0. The binding constant (Ki) of AmelOBP2 and odor volatiles were computed using the following equation [26]:Ki = [IC50]/(1 + [1-NPN]/K1-NPN)
IC50 refers to the concentration of the odorant at which the fluorescence intensity of the AmelOBP2/1-NPN complex was reduced by 50%. 1-NPN refers to the concentration of unbound 1-NPN, while K1-NPN refers to the binding constant of the AmelOBP2/1-NPN complex. The smaller the Ki, the stronger the binding ability of the substance to the recombinant protein. Ki values ranging from 0 to 5µM indicate strong binding ability with AmelOBP2.

Data set [2] deals with Apis mellifera ligustica antennae. Put plainly: Electroantennogram (EAG) response to compounds under RNAi silencing. The data set is classed as in vivo. Details: concentration or dose not given beside the values. The settings on record: decrease of EAG response in honeybees fed siAmelOBP2. The source says:
To clarify the physiological function of amelobp2 in the detection of floral volatiles in honeybees, we selected the following five volatiles: e-2-hexenal, e-2-octenal, 1-nonanal, 2-methyl-5-(1-methyl ethenyl)-cyclohexanone, and methyl benzene. Specifically, e-2-hexenal and e-2-octenal are volatiles of melon flowers; 2-methyl-5-(1-methyl ethenyl)-cyclohexanone and methyl benzene are volatiles of tomato flowers; and 1-nonanal is both a melon flower volatile and a tomato flower volatile. The antennal electrical activity of the honeybees was measured after feeding with siAmelOBP2.
Based on the results of the fluorescence competitive binding tests and our previous research involving EAG tests, odor-standard compounds were identified for testing (Table A5). The optimal siRNA and silencing time were determined by an experiment and fed to honeybees. The EAG response was measured using an EAG insect antennal potential measurement system (Syntech, Netherlands). Each measurement was repeated using three antennae. The results of the antennal potential measurements were expressed as the EAG relative response value (rEAG), which was calculated as follows:rEAG = (EAG (X) − EAG (std))/EAG (std)(1)
EAG (X) represents the response amplitude (mV) of the EAG to a given compound, while EAG (std) represents the response amplitude (mV) of the EAG to the reference liquid paraffin at each recording stage.

The next data set relates to AmelOBP2 mRNA. Put plainly: RNAi silencing effect on AmelOBP2 mRNA after siRNA feeding (qRT-PCR). Format: in vivo, Apis mellifera ligustica. The note with it: 8 μg per bee, 20-d-old honeybees. As to the method:
Total RNA and cDNA were obtained according to Du et al.. The obtained cDNA was subjected to qRT-PCR using the SYBR fluorescent dye method (Takara, Japan) (Table A1). The primers were synthesized by Sangon Biotech (Table A2). Data processing refers to Livak and Schmittgen (2^−ΔΔCt method).
Honeybees were collected at 20 d of age from an apiary at the College of Animal Science, Shanxi Agricultural University. Honeybees were randomly divided into 4 groups (n = 40) and starved in an incubator for 30 min (65–70% relative humidity; 28 ± 1 °C). Honeybees were fed with siAmelOBP2 (8 μg per bee dissolved in sucrose solution); the siAmelOBP2 are recorded as siAmelOBP2-1 (79 bp) and siAmelOBP2-2 (329 bp). We used siNC and 30% sucrose solution as the controls. After feeding, the honeybees were placed back in the incubator. At 24, 48, 72, and 96 h, the honeybees were captured randomly in each group, and the silencing effect of RNAi was assessed using qRT-PCR.

Data set [3] concerns the target T1, AmelOBP2. The experiment in a line: Binding curve and Scatchard plot of fluorescence probe 1-NPN to recombinant AmelOBP2. Details: species or system Apis mellifera ligustica. The note with it: Scatchard plot; excitation 337 nm, emission maximum 405 nm; read-out: binding constant between AmelOBP2 and the probe. As to the method:
At an excitation wavelength of 337 nm, no clear fluorescence signal was observed from the AmelOBP2 protein working solution. By adding 3 μL of the 1-NPN solution to the protein working solution successively, the maximum fluorescence intensity was found at 405 nm, and the fluorescence intensity increased with the increase in the probe concentration. The resulting data were then fitted using regression and Scatchard processing to produce a combination curve and linear equation for AmelOBP2 and 1-NPN (Figure 5).
as §1

T1 sequence (A0A8U0WQ64 entry or part of it): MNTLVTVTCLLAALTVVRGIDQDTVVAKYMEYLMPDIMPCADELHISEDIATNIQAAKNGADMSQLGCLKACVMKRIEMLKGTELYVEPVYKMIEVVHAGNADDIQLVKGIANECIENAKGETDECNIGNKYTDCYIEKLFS

Take `CCC/C=C/C=O` [e-2-hexenal]: at AmelOBP2 [1], the Ki turned out to be 2.83 µM and the IC50 is 6.33 µM. Moreover, the “Silencing Efficiency (EAG response)” value in data set [2] was 34.64%.

For `CCCCCCCCCCCCCCCC(=O)OC` [methyl palmitate], at AmelOBP2 [1], the “binding ability to AmelOBP2 (in words)” value is reported as “exhibited binding ability”.

As for `C=C1CC/C=C(\C)CC[C@@H]2[C@@H]1CC2(C)C` [β-caryophyllene], at AmelOBP2 [1], the Ki was 4.84 µM and the IC50 turned out to be 10.8 µM.

Turning to “siAmelOBP2-2: siRNA against AmelOBP2 (329 bp); F: GGAUCGCGAAUGAGUGCAUTT, R: AUGCACUCAUUCGCGAUCCTT (chemistry not given here)”, the “silencing efficiency (AmelOBP2 mRNA)” value is on record as 58.87% in the data set with AmelOBP2 mRNA (24 h after siRNA feeding), 47.35% in the data set on AmelOBP2 mRNA (48 h after siRNA feeding), 79.83% with AmelOBP2 mRNA (72 h after siRNA feeding) and 67.19% in the data set on AmelOBP2 mRNA (96 h after siRNA feeding).

On to `c1ccc(Nc2cccc3ccccc23)cc1` [1-NPN], for which, on AmelOBP2 [3], the Kd is 2 µM.

As to `C=CC(=C)CCCC(=C)C` [alpha-myrcene], at AmelOBP2 [1], the Ki stood at 2.76 µM and the IC50 was found to be 6.18 µM.

With phytol, at AmelOBP2 [1], the Ki worked out at 16.2 µM and the IC50 stood at 36.3 µM.

Take `CCCCCCCCCCCCCCCCC` [heptadecane]: on AmelOBP2 [1], the Ki was 16.7 µM and the IC50 was 37.3 µM.

Take `O=CCCc1ccccc1` [benzenepropanal]: on AmelOBP2 [1], the Ki stood at 7.3 µM and the IC50 was determined as 16.3 µM.

As to `CC1=CCC(C(C)C)=CC1` [gamma-terpinene], at AmelOBP2 [1], the Ki amounted to 4.16 µM and the IC50 is 9.31 µM.

As for `Cc1ccccc1` [methyl benzene], on AmelOBP2 [1], the Ki is 8.3 µM and the IC50 was 18.6 µM. The “Silencing Efficiency (EAG response)” value in data set [2] turned out to be 28.76%.

As for `CCCCCCCCCCCCCC` [tetradecane], on AmelOBP2 [1], the Ki stood at 8.06 µM and the IC50 was found to be 18 µM.

`CC1=CC(=O)C(C(C)C)CC1` (centres unmarked) [3-methyl-6-(1-methylethyl)-2-cyclohexen-1-one]: at AmelOBP2 [1], the Ki was found to be 11.2 µM and the IC50 is 25 µM.

In the case of `CCCCCCCCCCCCCCCC(=O)OCC` [hexadecanoic acid, ethyl ester], on AmelOBP2 [1], the Ki came to 12.8 µM, the “binding ability to AmelOBP2 (in words)” value is reported as “exhibited binding ability” and the IC50 amounted to 28.8 µM.

On to `CCCCCCCCCCCCCCCCCCC` [nonadecane], for which, on AmelOBP2 [1], the Ki was found to be 14.7 µM and the IC50 amounted to 33 µM.

For the compound “siAmelOBP2-1: siRNA against AmelOBP2 (79 bp); F: GCAAAGUACAUGGAGUAUUTT, R: AAUACUCCAUGUACUUUGCTT (chemistry not given here)”, the “silencing efficiency (AmelOBP2 mRNA)” value in the data set with AmelOBP2 mRNA (72 h after siRNA feeding) was found to be 62.86%.

Turning to `CCCCC/C=C/C=O` [e-2-octenal], at AmelOBP2 [1], the Ki was found to be 7.45 µM and the IC50 came to 16.7 µM. Further, in data set [2], the “Silencing Efficiency (EAG response)” value was 55.20%.

In the case of `CC(C)C(=O)OCC(C)(C)C(OC(=O)C(C)C)C(C)C` (centres unmarked) [2,2,4-trimethyl-1,3-pentanediol diisobutyrate], on AmelOBP2 [1], the Ki was 4.92 µM and the IC50 is 11 µM.

With `C=C/C(C)=C/CC=C(C)C` [β-ocimene], at AmelOBP2 [1], the Ki turned out to be 3.75 µM and the IC50 is 8.4 µM.

Consider `Cc1cccc(C)c1` [1,3-dimethyl-benzene], for which, at AmelOBP2 [1], the Ki was determined as 11 µM and the IC50 came out at 24.6 µM.

`O=CCc1ccccc1` [benzeneacetaldehyde]: at AmelOBP2 [1], the Ki is 4.55 µM and the IC50 stood at 10.2 µM.

On to `CCCCCCCCCC=O` [decanal], for which, at AmelOBP2 [1], the Ki was 3.72 µM and the IC50 amounted to 8.32 µM.

In the case of `Cc1ccc(C(C)C)cc1` [p-cymene], on AmelOBP2 [1], the Ki came out at 3.58 µM and the IC50 came out at 8.02 µM.

On to `C=C(C)c1ccc(C)cc1` [1-methyl-4-(1-methylethenyl)-benzene], for which, on AmelOBP2 [1], the Ki amounted to 6.23 µM and the IC50 worked out at 13.9 µM.

In the case of `CCCCCC=CC(C)=O` [3-nonen-2-one], at AmelOBP2 [1], the Ki stood at 4.3 µM and the IC50 was determined as 9.63 µM.

For `O=Cc1ccccc1` [benzaldehyde], on AmelOBP2 [1], the inhibitory constant (Ki) worked out at 3.74 µM and the IC50 is 8.37 µM.

As to `C=CC(C)(O)CCC=C(C)C` (centres unmarked) [3,7-dimethyl-1,6-octadien-3-ol], on AmelOBP2 [1], the inhibition constant (Ki) stood at 7.01 µM and the IC50 came to 15.7 µM.

As to `C=C(C)C1CCC(C)C(=O)C1` (centres unmarked) [2-methyl-5-(1-methylethenyl)-cyclohexanone], at AmelOBP2 [1], the Ki was determined as 6.03 µM and the IC50 amounted to 13.5 µM. Further, in data set [2], the “Silencing Efficiency (EAG response)” value came out at 32.48%.

In the case of `CCCCCCCCCCCCCCCCCCCCC` [heneicosane], on AmelOBP2 [1], the Ki turned out to be 21.7 µM, the “binding ability to AmelOBP2 (in words)” value is recorded as “relatively weak binding ability” and the IC50 was 48.6 µM.

Take `CC(=O)/C=C/C1=C(C)CCCC1(C)C` [trans-β-ionone]: on AmelOBP2 [1], the Ki came out at 4.21 µM and the IC50 turned out to be 9.43 µM.

For `CCCCCCC/C=C/C=O` [e-2-decenal], on AmelOBP2 [1], the Ki is 2.42 µM and the IC50 was determined as 5.41 µM.

Turning to `CCCCCCCCCCCCCCCCCCCCCCCC` [tetracosane], at AmelOBP2 [1], the Ki amounted to 13.2 µM and the IC50 amounted to 29.6 µM.

Turning to `CCCCCCCCCCCCCCCC` [hexadecane], on AmelOBP2 [1], the Ki was 30.6 µM, the “binding ability to AmelOBP2 (in words)” value is reported as “relatively weak binding ability” and the IC50 stood at 68.6 µM.

Turning to `CCCCCCCCC=O` [1-nonanal], on AmelOBP2 [1], the Ki amounted to 5.26 µM and the IC50 stood at 11.8 µM. For the same compound, the “Silencing Efficiency (EAG response)” value in data set [2] is listed as 37.28%.

For `CC(C)(C)c1cccc(C(C)(C)C)c1` [1,3-bis (1,1-dimethyl ethyl)-benzene], at AmelOBP2 [1], the Ki came to 2.85 µM and the half-maximal inhibitory concentration (IC50) came to 6.37 µM.

Consider `O=CC=Cc1ccccc1` [3-phenyl-2-propenal], for which, at AmelOBP2 [1], the Ki was 5.69 µM and the IC50 is 12.7 µM.

As for `Cc1ccc(C)c(C=O)c1` [2,5-dimethyl-benzaldehyde], on AmelOBP2 [1], the Ki was 7.12 µM and the IC50 was determined as 15.9 µM.

Turning to `COC(=O)c1ccccc1C(=O)OC` [dimethyl phthalate], on AmelOBP2 [1], the Ki amounted to 5.54 µM and the IC50 was determined as 12.4 µM.

Regarding `CC=Cc1ccc(OC)c(OC)c1` [1,2-dimethoxy-4-(1-propenyl)-benzene], on AmelOBP2 [1], the inhibition constant (Ki) worked out at 7.68 µM and the half-maximal inhibitory concentration (IC50) was determined as 17.2 µM.

Turning to `CCCCCCCCCCCC=O` [dodecanal], on AmelOBP2 [1], the Ki worked out at 1.05 µM and the IC50 amounted to 2.35 µM.

For hexadecenoic acid, at AmelOBP2 [1], the Ki worked out at 5.29 µM and the IC50 worked out at 11.8 µM.

One may read the Ki as a measure of affinity in units of concentration, obtained from inhibition or displacement. One may read the IC50 as the concentration that inhibits the measured activity by half.

The values above are taken from paper PMC11989179, “Odor-Binding Protein 2 in Apis mellifera ligustica Plays Important Roles in the Response to Floral Volatiles Stimuli from Melon and Tomato Flowers” (International Journal of Molecular Sciences, 2025).
